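Five concentrations, 48 hours, 96-well plates. The concentration for 50% growth inhibition is given as GI50.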 The source made the active and inactive calls. Rule as the data show it: active = GI50 up to about 1.1 µM and inactive = higher.
How the values were obtained:
Assay in all cases: DTP human tumour cell line panel, 48 h
T47D = test system: T47D
EKVX = test system: EKVX
MDA-MB-231 = test system: MDA-MB-231
OVCAR-8 = test system: OVCAR-8
UACC-62 = test system: UACC-62
786-0 = test system: 786-0
IGROV-1 = test system: IGROV-1
A549 = test system: A549
SN12C = test system: SN12C
DU-145 = test system: DU-145
SR = test system: SR
NCI-H226 = test system: NCI-H226
SK-MEL-28 = test system: SK-MEL-28
SW-620 = test system: SW-620
KM12 = test system: KM12
NCI-H23 = test system: NCI-H23
Hs-578T = test system: Hs-578T
TK-10 = test system: TK-10
U-251 = test system: U-251
SF-295 = test system: SF-295

Q: For CCOC(=O)C1C(=O)CC1(C)C (stereo not given), which GI50 (T47D) is on record?
A: > 10 µM (inactive)

Q: What about the GI50 (EKVX) of the same molecule?
A: > 10 µM (inactive)

Q: What about the GI50 (MDA-MB-231) of the same molecule?
A: > 10 µM (inactive)

Q: And the GI50 (OVCAR-8)?
A: > 10 µM (inactive)

Q: And the GI50 (UACC-62)?
A: > 10 µM (inactive)

Q: And the GI50 (786-0)?
A: > 10 µM (inactive)

Q: What about the GI50 (IGROV-1) of the same molecule?
A: > 10 µM (inactive)

Q: What about the GI50 (A549) of the same molecule?
A: > 10 µM (inactive)

Q: What about the GI50 (SN12C) of the same molecule?
A: > 10 µM (inactive)

Q: And the GI50 (DU-145)?
A: > 10 µM (inactive)

Q: And the GI50 (SR)?
A: > 10 µM (inactive)

Q: What about the GI50 (NCI-H226) of the same molecule?
A: > 10 µM (inactive)

Q: What about the GI50 (SK-MEL-28) of the same molecule?
A: > 10 µM (inactive)

Q: And the GI50 (SW-620)?
A: > 10 µM (inactive)

Q: And the GI50 (KM12)?
A: > 10 µM (inactive)

Q: What about the GI50 (NCI-H23) of the same molecule?
A: > 10 µM (inactive)

Q: And the GI50 (Hs-578T)?
A: > 10 µM (inactive)

Q: What about the GI50 (TK-10) of the same molecule?
A: > 10 µM (inactive)

Q: And the GI50 (U-251)?
A: > 10 µM (inactive)

Q: And the GI50 (SF-295)?
A: > 10 µM (inactive)

Q: Which GI50 (T47D) does the source give for O=c1oc2ccc([N+](=O)[O-])cc2c(Nc2ccc3c(c2)S(=O)(=O)c2ccccc2O3)c1[N+](=O)[O-] here?
A: > 100 µM (inactive)

Q: And the GI50 (EKVX)?
A: > 100 µM (inactive)

Q: And the GI50 (MDA-MB-231)?
A: 49.7 µM (inactive)

Q: And the GI50 (OVCAR-8)?
A: > 100 µM (inactive)

Q: And the GI50 (UACC-62)?
A: 43.8 µM (inactive)

Q: What about the GI50 (786-0) of the same molecule?
A: > 100 µM (inactive)

Q: And the GI50 (IGROV-1)?
A: > 100 µM (inactive)

Q: And the GI50 (A549)?
A: > 100 µM (inactive)

Q: And the GI50 (SN12C)?
A: 80.2 µM (inactive)

Q: What about the GI50 (DU-145) of the same molecule?
A: > 100 µM (inactive)

Q: What about the GI50 (SR) of the same molecule?
A: 32.4 µM (inactive)

Q: What about the GI50 (NCI-H226) of the same molecule?
A: 35.9 µM (inactive)

Q: What about the GI50 (SK-MEL-28) of the same molecule?
A: 46.3 µM (inactive)

Q: What about the GI50 (SW-620) of the same molecule?
A: 97.7 µM (inactive)

Q: What about the GI50 (KM12) of the same molecule?
A: > 100 µM (inactive)

Q: What about the GI50 (NCI-H23) of the same molecule?
A: > 100 µM (inactive)

Q: And the GI50 (Hs-578T)?
A: 72.1 µM (inactive)

Q: What about the GI50 (TK-10) of the same molecule?
A: > 100 µM (inactive)

Q: And the GI50 (U-251)?
A: 57.3 µM (inactive)

Q: And the GI50 (SF-295)?
A: 60.4 µM (inactive)

Q: Which results are given for Nc1ccc(SC23CC4CC(CC(C4)C2)C3)cc1?
A: GI50 (T47D): > 100 µM (inactive); GI50 (EKVX): > 100 µM (inactive); GI50 (MDA-MB-231): > 100 µM (inactive); GI50 (OVCAR-8): > 100 µM (inactive); GI50 (UACC-62): > 100 µM (inactive); GI50 (786-0): > 100 µM (inactive); GI50 (IGROV-1): > 100 µM (inactive); GI50 (A549): > 100 µM (inactive); GI50 (SN12C): > 100 µM (inactive); GI50 (DU-145): > 100 µM (inactive); GI50 (SR): > 100 µM (inactive); GI50 (NCI-H226): < 0.01 µM (active); GI50 (SK-MEL-28): > 100 µM (inactive); GI50 (SW-620): > 100 µM (inactive); GI50 (KM12): > 100 µM (inactive); GI50 (NCI-H23): > 100 µM (inactive); GI50 (Hs-578T): > 100 µM (inactive); GI50 (TK-10): > 100 µM (inactive); GI50 (U-251): 78.3 µM (inactive); GI50 (SF-295): 92.7 µM (inactive)

Q: For Cc1ccc(S(=O)(=O)N2CCCC2C(=O)O[C@H]2CC[C@H]3CC=C[C@H]32)cc1 (stereo not given in full), which GI50 (T47D) is on record?
A: 38.3 µM (inactive)

Q: And the GI50 (EKVX)?
A: 65.6 µM (inactive)

Q: What about the GI50 (MDA-MB-231) of the same molecule?
A: 63.4 µM (inactive)

Q: What about the GI50 (OVCAR-8) of the same molecule?
A: 31.8 µM (inactive)

Q: What about the GI50 (UACC-62) of the same molecule?
A: 97.3 µM (inactive)

Q: And the GI50 (786-0)?
A: 18.9 µM (inactive)

Q: And the GI50 (IGROV-1)?
A: 41.3 µM (inactive)

Q: And the GI50 (A549)?
A: 19.4 µM (inactive)

Q: What about the GI50 (SN12C) of the same molecule?
A: 27.8 µM (inactive)

Q: What about the GI50 (DU-145) of the same molecule?
A: > 10 µM (inactive)

Q: What about the GI50 (SR) of the same molecule?
A: 24.9 µM (inactive)

Q: What about the GI50 (NCI-H226) of the same molecule?
A: 24.7 µM (inactive)

Q: What about the GI50 (SK-MEL-28) of the same molecule?
A: 29.9 µM (inactive)

Q: What about the GI50 (SW-620) of the same molecule?
A: 31.1 µM (inactive)

Q: What about the GI50 (KM12) of the same molecule?
A: > 100 µM (inactive)

Q: And the GI50 (NCI-H23)?
A: 35.6 µM (inactive)

Q: And the GI50 (Hs-578T)?
A: 41.4 µM (inactive)

Q: And the GI50 (TK-10)?
A: > 10 µM (inactive)

Q: What about the GI50 (U-251) of the same molecule?
A: 45.4 µM (inactive)

Q: What about the GI50 (SF-295) of the same molecule?
A: 23.7 µM (inactive)

Q: What does the source list for C[C@]12CC[C@H](O)C[C@H]1CC[C@@H]1[C@@H]2CC[C@]2(C)[C@@H](C3=CC(=O)OC3)[C@@H](O)C[C@]12O [GITOXIGENIN]?
A: GI50 (T47D): 3.65 µM (inactive); GI50 (EKVX): 0.785 µM (active); GI50 (MDA-MB-231): 4.93 µM (inactive); GI50 (OVCAR-8): 2.93 µM (inactive); GI50 (UACC-62): 2.62 µM (inactive); GI50 (786-0): 0.995 µM (active); GI50 (IGROV-1): 2.86 µM (inactive); GI50 (A549): 0.445 µM (active); GI50 (SN12C): 0.566 µM (active); GI50 (DU-145): 1.04 µM (active); GI50 (SR): 0.977 µM (active); GI50 (NCI-H226): 3.12 µM (inactive); GI50 (SK-MEL-28): 5.13 µM (inactive); GI50 (SW-620): 3.18 µM (inactive); GI50 (KM12): 4.85 µM (inactive); GI50 (NCI-H23): 0.682 µM (active); GI50 (Hs-578T): 0.968 µM (active); GI50 (TK-10): 0.625 µM (active); GI50 (U-251): 2.22 µM (inactive); GI50 (SF-295): 1.41 µM (inactive)

Q: For Nc1ccc(S(=O)(=O)Nc2cnc3ccccc3n2)cc1 [SULFAQUINOXALINE], which GI50 (T47D) is on record?
A: > 100 µM (inactive)

Q: What about the GI50 (EKVX) of the same molecule?
A: > 100 µM (inactive)

Q: What about the GI50 (MDA-MB-231) of the same molecule?
A: > 100 µM (inactive)

Q: And the GI50 (OVCAR-8)?
A: > 100 µM (inactive)

Q: What about the GI50 (UACC-62) of the same molecule?
A: > 100 µM (inactive)

Q: And the GI50 (786-0)?
A: > 100 µM (inactive)

Q: What about the GI50 (IGROV-1) of the same molecule?
A: > 96.6 µM (inactive)

Q: What about the GI50 (A549) of the same molecule?
A: > 100 µM (inactive)

Q: And the GI50 (SN12C)?
A: > 100 µM (inactive)

Q: What about the GI50 (DU-145) of the same molecule?
A: > 100 µM (inactive)

Q: What about the GI50 (SR) of the same molecule?
A: > 100 µM (inactive)

Q: What about the GI50 (NCI-H226) of the same molecule?
A: > 100 µM (inactive)

Q: And the GI50 (SK-MEL-28)?
A: > 100 µM (inactive)

Q: What about the GI50 (SW-620) of the same molecule?
A: > 100 µM (inactive)

Q: What about the GI50 (KM12) of the same molecule?
A: > 100 µM (inactive)

Q: And the GI50 (NCI-H23)?
A: > 100 µM (inactive)

Q: What about the GI50 (Hs-578T) of the same molecule?
A: < 0.01 µM (active)

Q: What about the GI50 (TK-10) of the same molecule?
A: > 100 µM (inactive)

Q: And the GI50 (U-251)?
A: > 100 µM (inactive)

Q: And the GI50 (SF-295)?
A: > 100 µM (inactive)
